Structures can show the parent of a compound that is named as a salt.
Assays:
Type in all cases: physicochemical
[1] = Test of solubility in water for injection; settings: stirred at 37° C. for 1 hour, HPLC Method A
Method: (Test of Solubility in Water for Injection)
1. Preparation of Calibration Curve
First, 5 mg of monohydrochloride crystal Form I of Compound (I) was precisely weighed and dissolved in a mixed solution of acetonitrile:water (1:1), and thus a 500 μg/mL solution was obtained. The obtained solution was diluted with a mixed solution of acetonitrile:water (1:1) such that the concentrations of the compound were 5 and 50 μg/mL. Accordingly, a standard calibration curve was prepared according to HPLC measurement conditions (Method A). The same operation was carried out for monohydrochloride crystal Form II, monohydrochloride crystal Form V, monohydrochloride crystal Form VI, mono-p-toluenesulfonate crystal Form I, and free base crystals.
2. Preparation of Sample Solution
First, 1 mg of monohydrochloride crystal Form I of Compound (I) was precisely weighed and transferred to a vial having a volume of 4 mL. Then, 1 mL of water (water for injection) was added, and the mixture was stirred at 37° C. for 1 hour. After being stirred, this suspension was filtered, and the peak area was measured under HPLC measurement conditions (Method A) using a solution obtained by diluting the filtrate two-fold with a mixed solution of acetonitrile:water (1:1) as a sample. The concentration was calculated using the peak area and the calibration curve prepared above. The same operation was carried out for monohydrochloride crystal Form II, monohydrochloride crystal Form V, monohydrochloride crystal Form VI, mono-p-toluenesulfonate crystal Form I, and free base crystals.

[2] = Moisture sorption-desorption isothermal measurement; settings: for Ratio of increased mass (moisture sorption): mass increase at 95% Target % P/P0 relative to mass at 0% Target % P/P0, 25° C.; for Ratio of increased mass in moisture desorption isothermal measurement: ratio at 0% Target % P/P0 after desorption, 25° C.
Source text: (Moisture Sorption-Desorption Isothermal Measurement)
Moisture sorption-desorption isothermal measurement is measuring the weight changes of a subject solid under various relative humidity conditions, and is a method for determining moisture sorption-desorption behaviors.
As a basic measurement method, the relative humidity is increased in increments of 5% or 10% based on the dry weight at 0% Target % P/P0 (relative humidity 0%), and after the weights at respective relative humidities are stabilized, the amount of adsorbed water can be obtained from the weight increased from a reference value. Similarly, it is possible to measure the amount of desorbed water by reducing the relative humidity in increments of 5% or 10% from 100% Target % P/P0.
Sorption and desorption isotherms can be obtained by plotting the weight change values at respective relative humidities. From the results, it is possible to investigate the sorption and desorption phenomena of attached moisture at respective humidities. Also, when anhydride crystals and hydrate crystals undergo mutual crystal transition due to humidity, it is possible to calculate the humidity, at which crystal transition occurs, and the amount of water of crystallization.
Since the sorption and desorption of attached water and water of crystallization are affected by the particle size, degree of crystallinity, crystal habit, and the like, the measurement results may slightly vary.
Moisture sorption-desorption isothermal measurement was performed on the crystals obtained in each Example. About 10 mg of a sample was weighed onto a sample pan, and measurement was performed. Measurement conditions are as shown below.
Device: DVS Advantage by Surface Measurement Systems Ltd.
Measurement points: from 0% Target % P/P0 to 95% Target % P/P0 in increments of 5%, then from 95% Target % P/P0 to 0% Target % P/P0 in decrements of 5% Temperature: 25° C. […]

[3] = Light exposure test (photostability); settings: for E isomer (Retention time 38 minutes), Light exposed sample: D65 lamp, total illuminance about 1.2 million lx·hr; for E isomer (Retention time 38 minutes), Light exposed sample / E isomer (Retention time 38 minutes), Dark control: HPLC Method B; for E isomer (Retention time 38 minutes), Increased amount: light exposed sample minus dark control
Source text: The photostability test is one of the methods for measuring chemical or physicochemical changes of an active pharmaceutical ingredient or a pharmaceutical preparation caused by light exposure to evaluate properties of a sample with respect to light. In the photostability test, a sample such as an active pharmaceutical ingredient or a pharmaceutical preparation is irradiated with light at a specified output for a certain period of time. Properties of the sample with respect to light can be evaluated by analyzing the impurities and analogous substances, crystal form, color difference, and the like of the sample by scientific techniques (such as high performance liquid chromatography, X-ray crystal diffraction, and colorimetry) when a specified total illuminance is reached. In order to verify that a specified amount of light exposure is attained, the amount of light exposure is managed using a radiometer or a luminometer, and a test is carried out using an actinometric system.
(Photostability Measurement)
A photostability test was performed using a photostability tester (model LTL200A5-15WCD) by Nagano Science. A D65 lamp was used as an irradiation source of light, and light was irradiated to a total illuminance of about 1.2 million 1×·hr under 4000 lx·hr conditions.
The quality evaluations of the respective crystals were carried out using HPLC (Method B).

[4] = Stability test of crystals on heating (NMR before/after); settings: heated at 50° C. for 8 hours
Method: (Results of Stability Test)
The crystals of Compound (IIA) obtained in Example 21 were heated at 50° C. for 8 hours and measured NMR data.

[5] = Test of solubility in organic solvent; settings: stirred at 22° C. for 4 hours, supernatant, HPLC Method B; for Concentration (% by weight) in 2-Propanol: suspended in 2-propanol; for Concentration (% by weight) in Acetone: suspended in acetone; for Concentration (% by weight) in Ethyl acetate: suspended in ethyl acetate
Method: (Test of Solubility in Organic Solvent)
The monohydrochloride crystal Form I, monohydrochloride crystal Form V, and free base crystals of Compound (I) were each suspended in 2-propanol, acetone, and ethyl acetate, and stirred at 22° C. for 4 hours, and the concentrations of supernatants were measured (HPLC: Method B).

[6] = Observation of hygroscopicity of isolated salt; settings: isolated solid
Method: Ethyl acetate (8 mL) was added to Compound 3 (4.12 g, 17.7 mmol), and the mixture was stirred. When 4 mol/L a solution (16 mL) of hydrochloric acid in ethyl acetate was added, white solids were precipitated. Ethyl acetate (8 mL) was added, and then the mixture was stirred for about 4 hours at room temperature.
Benzenesulfonic acid (78.57 mg) and tetrahydrofuran (0.2 mL) were stirred at 50° C., and a tetrahydrofuran (0.2 mL) solution of Compound 3 (51.54 mg, 0.222 mmol) was added dropwise. After about 20 minutes, cooling the mixture to room temperature caused solids to precipitate. Then, 0.15 mL of tetrahydrofuran was added, and the mixture was stirred at 50° C. for 10 minutes and cooled to 10° C.

[7] = listed as Monohydrochloride form crystal VI
[8] = listed as mono-p-toluenesulfonate crystal Form I
[9] = listed as Monohydrochloride form crystal V

Compound	Solubility in water for injection [1]	Ratio of increased mass (moisture sorption) [2]	Ratio of increased mass in moisture desorption isothermal measurement [2]	E isomer (Retention time 38 minutes), Light exposed sample [3]	E isomer (Retention time 38 minutes), Dark control [3]	E isomer (Retention time 38 minutes), Increased amount [3]	Concentration (% by weight) in 2-Propanol [5]	Concentration (% by weight) in Acetone [5]	Concentration (% by weight) in Ethyl acetate [5]	also measured
CC#C/C(=N\OC[C@H]1COCCN1)c1ccc2ncnc(Nc3ccc(OCc4cccc(F)c4)c(Cl)c3)c2c1 [Monohydrochloride crystal Form VI]	12.9 µg/mL	small	about 0.06%	–	–	–	–	–	–	Solubility in water for injection ([1]; listed as monohydrochloride crystal Form VI): high solubilities; E isomer (Retention time 38 minutes), Light exposed sample [3, 7]: 1.80 area %; E isomer (Retention time 38 minutes), Dark control [3, 7]: 1.16 area %; E isomer (Retention time 38 minutes), Increased amount [3, 7]: 0.64 area %
CC#C/C(=N\OC[C@H]1COCCN1)c1ccc2ncnc(Nc3ccc(OCc4cccc(F)c4)c(Cl)c3)c2c1 [Monosulfate crystal]	–	–	about 0.13%	–	–	–	–	–	–	Ratio of increased mass (moisture sorption) ([2]; listed as monosulfate crystals): about 3.3%
CC#C/C(=N\OC[C@H]1COCCN1)c1ccc2ncnc(Nc3ccc(OCc4cccc(F)c4)c(Cl)c3)c2c1 [Mono-p-toluenesulfonate crystal Form I]	26.6 µg/mL	small	about 0.12%	32.86 area %	0.10 area %	32.76 area %	–	–	–	Solubility in water for injection [1, 8]: high solubilities; E isomer (Retention time 38 minutes), Increased amount [3, 8]: about 33 area %
NOC[C@H]1COCCN1 [Compound (IIA)]	–	–	–	–	–	–	–	–	–	Stability of crystals on heating (change of NMR peaks) [4]: no changes to the peaks were observed
CC#C/C(=N\OC[C@H]1COCCN1)c1ccc2ncnc(Nc3ccc(OCc4cccc(F)c4)c(Cl)c3)c2c1 [Free base crystal]	–	–	about 0.16%	2.59 area %	–	2.59 area %	0.49 % by weight	8.1 % by weight	3.3 % by weight	Solubility in water for injection ([1]; listed as free base crystals): not dissolved in water for injection at all
CC#C/C(=N\OC[C@H]1COCCN1)c1ccc2ncnc(Nc3ccc(OCc4cccc(F)c4)c(Cl)c3)c2c1 [Monohydrochloride crystal Form V]	14.0 µg/mL	small	about 0.05%	–	–	–	0.01 % by weight	0.02 % by weight	0.00 % by weight	Solubility in water for injection ([1]; listed as monohydrochloride crystal Form V): high solubilities; E isomer (Retention time 38 minutes), Light exposed sample [3, 9]: 1.19 area %; E isomer (Retention time 38 minutes), Dark control [3, 9]: 0.13 area %; E isomer (Retention time 38 minutes), Increased amount [3, 9]: 1.06 area %
CC#C/C(=N\OC[C@H]1COCCN1)c1ccc2ncnc(Nc3ccc(OCc4cccc(F)c4)c(Cl)c3)c2c1 [Monohydrochloride crystal Form II]	56.0 µg/mL	small	about 0.05%	1.21 area %	1.44 area %	−0.23 area %	–	–	–	Solubility in water for injection ([1]; listed as monohydrochloride crystal Form II): high solubilities
NOC[C@H]1COCCN1 [Compound (II′)]	–	–	–	–	–	–	–	–	–	Hygroscopicity (observation) [6]: absorbed moisture and deliquesced
CC#C/C(=N\OC[C@H]1COCCN1)c1ccc2ncnc(Nc3ccc(OCc4cccc(F)c4)c(Cl)c3)c2c1 [Monohydrochloride crystal Form I]	34.5 µg/mL	small	about 0.08%	4.41 area %	0.63 area %	3.78 area %	0.03 % by weight	0.08 % by weight	0.01 % by weight	Solubility in water for injection ([1]; listed as monohydrochloride crystal Form I): high solubilities
NOC[C@H]1COCCN1 [Compound (II″)]	–	–	–	–	–	–	–	–	–	Hygroscopicity (observation) [6]: highly hygroscopic
